# Results from patent US20150250864A1, “ANTI-CANCER VACCINES” (Board of Regents, The University of Texas System, priority 2012, published 2015).
# Test system: T cells in PBMCs
# Assay: IFN-γ release by ELISA from PBMC stimulated with peptides or protein
# Format: cell-based, human
# Conditions: stimulated PBMC, FIG. 21A
# Excerpt: FIG. 17. T cell stimulation by HERV-K peptides. Peptides (p73-76 and p18-135) or HERV-K SU fusion proteins were used to stimulate PBMC and evaluated in vitro for their ability to stimulate T cells in PBMCs from healthy subjects (ND1007083; left) and/or cancer patients (BC 243; right), based on interferon-γ(IFN-γ) release by ELISA. KLH peptide and GST protein were used as controls. Other negative controls included media only, DMSO, and PBS.
# FIG. 18. T cell stimulation by HERV-K peptides. Peptides (p73-76: left; and p18-135: middle) or HERV-K SU fusion proteins (right) were used to stimulate PBMC and evaluated in vitro for their ability to stimulate T cells in PBMCs from healthy subjects and/or cancer patients (BC 243; middle), based on interferon-γ (IFN-γ) release by ELISA. OD values of interferon-γ (IFN-γ) release were compared between normal donors (ND447549, ND1001366, and ND1007083) and cancer patients (OC222, OC 210, OC212, and BC243). OC is ovarian cancer and BC is breast cancer
# FIGS. 21A-C. T Cell Stimulation. 9 mer Peptides (HERVK-3, HERVK-4, HERVK-11, and HERVK-18; see Table 1), p73-76 and p18-135 (Table 1 178 and 179), or HERV-K SU fusion proteins were used to stimulate PBMC and evaluated in vitro for their ability to stimulate T cells in PBMCs from healthy subjects and/or cancer patients, based on IFN-γ and Granzyme B release by ELISA. (FIG. 21A) OD values of IFN-γ release were compared in a normal donor (ND291812). (FIG. 21B) OD values of IFN-γ release were compared between a normal donor (ND291817) and an ovarian cancer patient (OC153). (FIG. 21C) OD values of Granzyme B release were compared between a normal donor (ND291817) and an ovarian cancer patient (OC153). Each dot represents an individual clone. Negative controls measured release of effector molecules from cancer cells after treatment with supernatants obtained from PBMCs without stimulation with HERV-K peptides or protein; positive controls were stimulated with PMA/ONO.
# Cancer patients were enrolled to evaluate HERV-K as a tumor associated antigen target. Patients provided written informed consent as part of an approved protocol (LAB04-0083) at MD Anderson Cancer Center prior to commencing the studies. Normal healthy donor control blood samples were obtained from Gulf Coast Regional Blood Center, Houston Tex. 40 mL of peripheral blood was obtained from each patient, and peripheral blood mononuclear cells (PBMCs) were isolated by density gradient centrifugation using Histopaque-1077 (Sigma-Aldrich; USA). HLA-A*02 expression in PBMCs obtained from cancer patients and healthy subjects was determined by flow cytometry with PE Mouse anti-human HLA-A2 mAb BB7.2 (BD Pharmingen; San Diego, Calif., USA). Mouse IgG2b was used as an isotype control. PBMCs (5×10^5 cells/well) from either healthy subjects or cancer patients were incubated with Peptide #18-135 ([…]; SEQ ID NO: 178), Peptide #73-76 ([…]; SEQ ID NO: 179) or KLH as control peptide) or proteins (HERV-K env SU protein or GST protein as control) at concentrations of 40 μg/mL in 96-well U-bottom microplates (BD; Franklin Lakes, N.J., USA) in 100 μL of T-cell medium (TCM), consisting of RPMI 1640 (Mediatech; Manassas, Va., USA), 10% human AB serum (Valley Biomedical, Winchester, USA), […] 2-mercaptoethanol, 100 IU/mL interleukin-2 (IL-2), and 0.1 mM MEM nonessential amino acid solution (Invitrogen; Grand Island, N.Y., USA). Half of the TCM was removed and replaced with fresh TCM containing peptides (20 μg/mL) on day 7. After 14 days of culture, the supernatants from cell culture media (PBMC pulsed with peptides or proteins) were harvested and tested for their ability to produce IFN-gamma or IL-2, and granzyme B release was also determined by enzyme-linked immunosorbent assay (ELISA) assay. In order to detect the secreted cytokine in this assay, high-binding plates were coated with 5 μg/ml anti-IFN-γ (Mabtech, Stockholm, Sweden) diluted in PBS buffer at 4° C. overnight. […]
row,Sequence,IFN-γ release (OD values)
1,IINLILILV [HERVK-18],Higher IFN-γ release
2,YMLVVGNIV [HERVK-3],Higher IFN-γ release
